Results on three compounds are retold here after US9835633B1, “Compositions and methods for identifying agents for treating apoE-related diseases” (The J. David Gladstone Institutes, priority 2015, dated 2017).

For this test, the system named is NSE-apoE4 primary neurons. Put plainly: apoE fragmentation in NSE-apoE4 primary neurons (western blot). The test is classed as cell-based, mouse. To be noted: NSE-apoE4 primary neurons treated with compound changing Golgi pH or calcium levels. How it is done:
To confirm that PCSK1 and PCSK2 actually contribute to neuronal cleavage of apoE observed in NSE-apoE4 primary neurons, NSE-apoE4 primary neurons were treated with lentivirus encoding either PCSK1 shRNA or PCSK2 shRNA to decrease the endogenous PCSK1 or PCSK2 levels.
Activity of both PCSK1 and PCSK2 is pH and calcium dependent. The optimum pH for PCSK1 and PCSK2 was acidic (pH 6.0 for PCSK1, pH 5.0 for PCSK2). Their activities were enriched in Golgi/trans-Golgi in neurons, which have an acidic environment. Based on this knowledge, it was hypothesized that changing the Golgi pH or calcium levels in neurons would affect PCSK1/PCSK2 activity and further regulate apoE fragmentation. To test this idea, NSE-apoE4 primary neurons were treated with Bafilomycin A, a compound that can increase Golgi pH, or Thapsigargin/2-APB, which can affect the calcium concentration in different cellular compartments.
PCSK1/PCSK2 generated similar apoE fragmentation patterns in N2A-apoE4 cells compared to NSE-apoE4 primary neurons. To determine whether PCSK1/PCSK2-generated apoE fragments are the same as those generated endogenously, lysates from N2A-apoE4 cells overexpressing either PCSK1 or PCSK2, lysates from NSE-apoE4 primary neurons, and the mixture of these two lysates, were tested. ApoE fragmentation was detected by western blot.
On the technique in general: Immunoblotting shows a protein as a band on a membrane.

Turning to `CO/C1=C\C(C)=C\[C@@H](C)[C@@H](O)[C@@H](C)C/C(C)=C/C=C/[C@H](OC)[C@@H]([C@@H](C)[C@@H](O)[C@H](C)[C@@]2(O)C[C@@H](O)[C@H](C)[C@@H](C(C)C)O2)OC1=O` [Bafilomycin A], the “apoE fragmentation after compound treatment” value (“apoE fragmentation” below) is reported as “decrease of apoE fragmentation”.

On to `C/C=C(/C)C(=O)O[C@H]1C(C)=C2[C@H]([C@@H]1OC(=O)CCCCCCC)[C@@](C)(OC(C)=O)C[C@H](OC(=O)CCC)[C@@]1(O)[C@H]2OC(=O)[C@@]1(C)O` [Thapsigargin], for which the “apoE fragmentation” value is listed as “decrease of apoE fragmentation”.

On to `NCCOB(c1ccccc1)c1ccccc1` [2-APB], for which the “apoE fragmentation” value is “decrease of apoE fragmentation”.
